Results: article PMC7562719, “Discovery of a CNS penetrant small molecule SMN2 splicing modulator with improved tolerability for spinal muscular atrophy” (Scientific Reports, 2020)
Read-outs that look alike come from different tables or passages of the source.

Legend:
[1] = target: T1, rat N type calcium channel (Rattus norvegicus, UniProt Q02294); test: Eurofins selectivity panel: N type calcium channel; type: binding
T1 construct: purchased Eurofins Inc

[2] = pharmacokinetic study in adult wild type FVB mice, oral; type: in vivo; details: for Kp / Cmax / MRT / Tmax: male, mouse
Method: TEC-1 was administered at doses of 2, 6, and 20 mg/kg for oral (suspended in 0.5% methyl cellulose aqueous solution) to male FVB mice (aged 8 weeks, 3 mice per a time point). After 0.5–120 h administration, blood and brain samples were collected. Blood samples with heparin were centrifuged for plasma collection. Brain samples were homogenized in saline 20% (w/v). The samples were deproteinized with acetonitrile and following by centrifugation, and the supernatants were analyzed by LC/MS/MS to obtain TEC-1 concentrations of the plasma and brain.

SMN protein = SMN protein in iPSC-derived motor neurons (HTRF, western blot); type: cell-based, human; details: iPSC-derived motor neurons (GM24468), 3 days
Method: GM03813 fibroblasts and GM24468-derived MNs were seeded at 1.5 × 10^4 and 4 × 10^4 cells/well in 96-well plates and were treated with TEC-1 or SMN-C3 for 72 h at the concentration of 0.01, 0.03, 0.1, 0.3, 1, or 3 µM. After 72 h exposure of compound, GM24468 derived MNs and GM03813 fibroblasts were washed once with D-PBS (-), lysed with RIPA buffer (Wako) containing cOmplete (Sigma-Aldrich) and PhosSTOP (Sigma-Aldrich). The lysates were spun at 15,000 rpm for 15 min at 4 °C, and the supernatants were collected. The protein concentration was quantified with BCA kit (Wako). The lysates, adjusted to have the same protein amount, were mixed with NuPAGE LDS sample buffer containing DTT and heated at 95 °C for 5 min. Except for HTT detection, each sample (2 µg total protein/lane) was loaded Perfect NT Gel 7.5–15% gel (DRC, Japan) and run at 150 V for 60–70 min with Tris/glycine/SDS running buffer (BIO-RAD, USA). […] After washing with TBS-T four times, chemiluminescence signals were detected by Immunostar Zeta (Wako) and LAS-4000 (GE healthcare). […]
SMN protein concentration of the cells were quantified using an SMN HTRF kit[15] […] The fluorescence emission was read at two different wavelengths (665 nm and 620 nm or 615 nm) using an Envision plate reader (PerkinElmer, USA) excited by 320 nm. The concentration of protein in each cell lysate were measured by BCA kit (BIO-RAD) and used for normalization.

[3] = brain, 2 mg/kg oral single, adult FVB mice
[4] = brain, 6 mg/kg oral single, adult FVB mice
[5] = brain, 20 mg/kg oral single, adult FVB mice
[6] = plasma, 2 mg/kg oral single, adult FVB mice
[7] = plasma, 6 mg/kg oral single, adult FVB mice
[8] = plasma, 20 mg/kg oral single, adult FVB mice

T1 sequence (Q02294 whole entry): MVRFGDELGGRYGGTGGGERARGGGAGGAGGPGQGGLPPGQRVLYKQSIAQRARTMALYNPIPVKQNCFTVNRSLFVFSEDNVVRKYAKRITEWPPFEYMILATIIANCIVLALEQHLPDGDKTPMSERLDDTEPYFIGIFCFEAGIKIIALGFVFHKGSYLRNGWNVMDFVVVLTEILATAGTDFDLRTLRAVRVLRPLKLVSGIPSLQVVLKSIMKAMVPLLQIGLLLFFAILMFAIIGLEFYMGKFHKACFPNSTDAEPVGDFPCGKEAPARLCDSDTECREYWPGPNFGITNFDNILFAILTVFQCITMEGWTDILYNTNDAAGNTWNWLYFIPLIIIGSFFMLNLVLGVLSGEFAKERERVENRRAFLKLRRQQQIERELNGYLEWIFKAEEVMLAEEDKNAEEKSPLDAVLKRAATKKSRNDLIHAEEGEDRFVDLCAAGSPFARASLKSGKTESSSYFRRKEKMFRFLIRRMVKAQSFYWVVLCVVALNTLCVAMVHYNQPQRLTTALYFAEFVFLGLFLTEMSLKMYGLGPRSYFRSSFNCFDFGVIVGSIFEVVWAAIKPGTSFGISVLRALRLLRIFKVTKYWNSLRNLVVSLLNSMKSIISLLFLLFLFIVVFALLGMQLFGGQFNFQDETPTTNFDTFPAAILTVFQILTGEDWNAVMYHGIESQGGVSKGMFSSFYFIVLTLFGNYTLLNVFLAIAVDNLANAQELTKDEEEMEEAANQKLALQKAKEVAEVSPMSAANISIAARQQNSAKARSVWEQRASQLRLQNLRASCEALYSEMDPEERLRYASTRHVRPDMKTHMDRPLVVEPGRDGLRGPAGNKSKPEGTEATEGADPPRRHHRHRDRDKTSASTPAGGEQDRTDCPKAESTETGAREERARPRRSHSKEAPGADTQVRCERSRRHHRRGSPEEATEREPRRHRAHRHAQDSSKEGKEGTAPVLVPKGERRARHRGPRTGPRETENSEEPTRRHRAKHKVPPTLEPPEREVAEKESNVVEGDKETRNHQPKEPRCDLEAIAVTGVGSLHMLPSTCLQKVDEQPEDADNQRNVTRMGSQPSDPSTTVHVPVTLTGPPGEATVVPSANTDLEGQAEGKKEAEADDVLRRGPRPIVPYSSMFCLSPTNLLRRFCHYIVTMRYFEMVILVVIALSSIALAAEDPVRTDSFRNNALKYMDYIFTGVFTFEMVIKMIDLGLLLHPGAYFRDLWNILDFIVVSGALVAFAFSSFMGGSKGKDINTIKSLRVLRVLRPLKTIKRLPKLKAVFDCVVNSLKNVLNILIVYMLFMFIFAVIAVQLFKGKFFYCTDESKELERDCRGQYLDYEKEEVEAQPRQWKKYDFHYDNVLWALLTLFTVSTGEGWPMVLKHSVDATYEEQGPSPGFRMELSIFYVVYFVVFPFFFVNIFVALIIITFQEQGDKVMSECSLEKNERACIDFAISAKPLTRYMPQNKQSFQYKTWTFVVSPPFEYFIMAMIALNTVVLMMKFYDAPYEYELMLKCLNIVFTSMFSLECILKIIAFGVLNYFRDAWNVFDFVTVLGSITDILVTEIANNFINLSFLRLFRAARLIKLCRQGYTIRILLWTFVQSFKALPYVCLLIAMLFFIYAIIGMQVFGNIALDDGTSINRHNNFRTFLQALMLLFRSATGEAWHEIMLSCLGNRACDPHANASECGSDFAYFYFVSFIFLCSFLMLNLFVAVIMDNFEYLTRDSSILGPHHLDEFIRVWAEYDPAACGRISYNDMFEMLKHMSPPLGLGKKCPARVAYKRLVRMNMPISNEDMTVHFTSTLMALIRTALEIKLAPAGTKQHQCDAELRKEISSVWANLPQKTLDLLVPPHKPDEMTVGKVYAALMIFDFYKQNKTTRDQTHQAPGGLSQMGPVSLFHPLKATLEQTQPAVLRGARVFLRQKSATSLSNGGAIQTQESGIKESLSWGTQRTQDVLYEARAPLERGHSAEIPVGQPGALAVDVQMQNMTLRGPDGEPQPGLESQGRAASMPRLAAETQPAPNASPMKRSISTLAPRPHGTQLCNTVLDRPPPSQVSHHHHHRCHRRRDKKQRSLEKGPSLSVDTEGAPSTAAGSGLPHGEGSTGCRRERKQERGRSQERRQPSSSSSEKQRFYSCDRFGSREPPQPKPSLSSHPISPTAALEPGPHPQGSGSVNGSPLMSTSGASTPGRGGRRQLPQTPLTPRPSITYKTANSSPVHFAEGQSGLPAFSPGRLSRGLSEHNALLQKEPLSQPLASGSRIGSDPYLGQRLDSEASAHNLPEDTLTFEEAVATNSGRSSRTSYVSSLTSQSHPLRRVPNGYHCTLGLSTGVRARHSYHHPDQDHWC
T1 sequence (P54287 whole entry partner): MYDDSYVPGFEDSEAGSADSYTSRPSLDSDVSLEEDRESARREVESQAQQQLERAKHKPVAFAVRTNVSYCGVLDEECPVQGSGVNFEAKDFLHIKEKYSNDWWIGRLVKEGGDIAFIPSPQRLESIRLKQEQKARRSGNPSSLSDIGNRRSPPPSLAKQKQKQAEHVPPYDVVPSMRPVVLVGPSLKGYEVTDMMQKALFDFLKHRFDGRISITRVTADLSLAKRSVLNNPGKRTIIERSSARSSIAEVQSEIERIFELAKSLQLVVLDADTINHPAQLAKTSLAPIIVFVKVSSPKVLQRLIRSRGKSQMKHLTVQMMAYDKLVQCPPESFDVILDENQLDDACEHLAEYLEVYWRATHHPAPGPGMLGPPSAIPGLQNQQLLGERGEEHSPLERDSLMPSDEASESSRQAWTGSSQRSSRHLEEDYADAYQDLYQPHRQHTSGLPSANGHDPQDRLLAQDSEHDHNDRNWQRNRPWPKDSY
T1 sequence (P54290 25-944 partner limits assumed): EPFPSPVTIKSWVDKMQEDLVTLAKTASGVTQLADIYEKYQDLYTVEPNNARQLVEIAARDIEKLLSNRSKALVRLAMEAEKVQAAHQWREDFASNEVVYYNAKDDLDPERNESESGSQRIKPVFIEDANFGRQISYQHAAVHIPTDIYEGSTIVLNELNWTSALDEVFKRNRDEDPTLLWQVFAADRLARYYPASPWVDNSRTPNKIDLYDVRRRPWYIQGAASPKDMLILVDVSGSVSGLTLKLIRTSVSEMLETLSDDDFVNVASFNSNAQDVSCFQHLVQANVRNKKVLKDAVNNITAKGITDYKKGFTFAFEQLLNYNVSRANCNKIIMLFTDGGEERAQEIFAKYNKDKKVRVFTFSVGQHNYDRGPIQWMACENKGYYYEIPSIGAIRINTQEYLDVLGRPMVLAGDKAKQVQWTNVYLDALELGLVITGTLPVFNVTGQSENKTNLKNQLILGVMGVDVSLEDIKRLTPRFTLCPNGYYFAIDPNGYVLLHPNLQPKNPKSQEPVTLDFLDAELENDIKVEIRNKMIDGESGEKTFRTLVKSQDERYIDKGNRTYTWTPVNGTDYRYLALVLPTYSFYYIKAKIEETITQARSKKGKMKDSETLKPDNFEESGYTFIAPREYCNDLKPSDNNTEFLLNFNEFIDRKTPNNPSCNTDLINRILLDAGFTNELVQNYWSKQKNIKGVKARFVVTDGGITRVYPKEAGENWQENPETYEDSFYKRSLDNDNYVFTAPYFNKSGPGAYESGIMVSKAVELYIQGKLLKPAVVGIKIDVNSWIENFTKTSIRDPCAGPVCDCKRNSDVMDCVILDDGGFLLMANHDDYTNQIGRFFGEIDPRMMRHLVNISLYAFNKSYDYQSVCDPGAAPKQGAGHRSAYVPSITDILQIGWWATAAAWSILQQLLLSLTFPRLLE
T1 sequence (P54290 945-1091 partner limits assumed): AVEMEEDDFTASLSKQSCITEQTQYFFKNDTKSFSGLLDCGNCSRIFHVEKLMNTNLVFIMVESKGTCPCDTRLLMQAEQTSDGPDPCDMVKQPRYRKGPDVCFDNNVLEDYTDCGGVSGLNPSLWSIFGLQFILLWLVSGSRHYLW

For `Cc1cn2nc(-c3nc4ccc(N5CCN(C)CC5)cc4c(=O)[nH]3)cc2c(C)n1` [TEC-1, 2-(4,6-dimethylpyrazolo[1,5-a]pyrazin-2-yl)-6-(4-methylpiperazin-1-yl)quinazolin-4(3H)-one], the IC50 [1] was 8.8 µM, the “AUC0–24 h” value [2, 3] was 2234.1 ng･h/g and the “AUC0–120 h” value [2, 3] was 2433.7 ng･h/g. For the same compound, the “AUC0–24 h” value [2, 4] was 3956.7 ng･h/g, the “AUC0–120 h” value [2, 4] was 8011.1 ng･h/g and the “AUC0–24 h” value [2, 5] was 6322.1 ng･h/g. The “AUC0–120 h” value [2, 5] was 29429.3 ng･h/g, the Kp ([2]; brain and plasma, other: intraperitoneal (juvenile) and oral (adult), juvenile (intraperitoneal) and adult (oral) FVB mice, read-out: Kp values (ratio of the compound in the brain and plasma)) was greater than 1 and the Kp ([2]; brain/plasma, 2 mg/kg oral single, adult FVB mice, read-out: Kp (AUC0–120h ratio)) was 1.2. For the same compound, the Kp ([2]; brain/plasma, 6 mg/kg oral single, adult FVB mice, read-out: Kp (AUC0–120h ratio)) was 1.2, the Kp ([2]; brain/plasma, 20 mg/kg oral single, adult FVB mice, read-out: Kp (AUC0–120h ratio)) was 1.8 and the Cmax [2, 3] was 168 ng/g. For the same compound, the MRT [2, 3] was 10.7 h, the Tmax [2, 3] was 1 h and the Cmax [2, 4] was 195 ng/g. For the same compound, the MRT [2, 4] was 29.5 h, the Tmax [2, 4] was 7 h and the Cmax [2, 5] was 360 ng/g. The MRT [2, 5] was 54.6 h, the Tmax [2, 5] was 32 h and the MRT [2, 6] was 10.7 h. It also gave a Tmax [2, 6] of 3 h, a Cmax ([2]; plasma, 2 mg/kg oral single, adult FVB mice, mean, n = 3) of 136 ng/mL and a Cmax [2, 7] of 157 ng/mL. It also gave an MRT [2, 7] of 33.1 h, a Tmax [2, 7] of 3 h and a Cmax [2, 8] of 222 ng/mL. For the same compound, the MRT [2, 8] was 48.5 h, the Tmax [2, 8] was 16 h and the “AUC0–24 h” value [2, 6] was 1906.7 ng･h/mL. The “AUC0–120 h” value [2, 6] was 2095.9 ng･h/mL, the “AUC0–24 h” value [2, 7] was 3100.3 ng･h/mL and the “AUC0–120 h” value [2, 7] was 6647.9 ng･h/mL. For the same compound, the “AUC0–24 h” value [2, 8] was 4950.5 ng･h/mL, the “AUC0–120 h” value [2, 8] was 16350.5 ng･h/mL and the “concentration that increased SMA protein” value (SMN protein) was 100 nM.
